“Also recorded” adds a separate entry of the source.
System: β-actin mRNA in RPMI 8392 cells
Assay: Quantitative RT-PCR of β-actin mRNA (control gene) after ODN treatment
Type: cell-based, human
Details: 10 or 30 μM ODN, 1 and 2 days
Excerpt: This is usually determined by looking at the reduction or disappearance of the protein product, either by selective measurement of an enzymatic activity of the protein, where applicable, or by immunoquantitation with specific antibodies by Western blot or ELISA techniques. Also, when PO or PS ODNs are used, which are capable of activating RNase H activity, it is expected that the mRNA of the targeted gene would be down regulated, most of the time, along with the protein product, and this can be readily tested by Northern blot analysis or PCR techniques. Using quantitative RT-PCR with primers specific for PDE1B1, we examined the RPMI 8392 cells for the presence of PDE1B1 mRNA. […] NS ODN, at these concentrations, had no effect on the expression of PDE1B1 mRNA. […]
HPBL were isolated from a normal human donor and placed in culture with (+PHA) or without (-PHA) phytohemagglutinin for 3 days. Quantitative RT-PCR was performed with 2 μg of HPBL RNA, using reagents and protocol from GIBCO/BRL. […]
Using quantitative RT-PCR, the effect of AS ODN and NS ODN on the level of mRNA for PDE1B1 in RPMI 8392 cells was examined. Quantitative RT-PCR was used to determine the relative amounts of β-actin and PDE1B1 mRNAs present in RPMI 8392 cells after 1 and 2 days in culture with 10 μM and 30 μM AS ODN (AS) and NS ODN (NS). […]

Substance: 5'-GGACAGCTCCATGCTCAG-3' (phosphorothioate, further chemistry not given here) [AS ODN, 18 nt phosphorothioate antisense oligodeoxynucleotide targeted against the translation initiation region of PDE1B1]
- Levels of β-actin mRNA: unaltered; also recorded: unchanged

Substance: 5'-TACGTGAGGCACCTACGC-3' (phosphorothioate, further chemistry not given here) [NS ODN, control phosphorothioate nonsense ODN, same base composition as the AS ODN in random, scrambled order]
- Levels of β-actin mRNA: no effect; also recorded: unchanged
